Laboratory results as given in patent US5504098A, “Benzothiazolesulfonamide derivative, method for preparing the same, and use thereof” (Asahi Kasei Kogyo Kabushiki Kaisha, priority 1993, dated 1996).
pKi: −log10 of the molar value. Structures can show the parent of a compound that is named as a salt.

Tests used:
protein kinase C (PKC) = test: Measurement of the activity to inhibit protein kinase C (PKC); format: biochemical, rat; settings: for pKi: ATP 1, 3, 5 and 10 μM, double reciprocal plotting, PKC from rat brain, read-out: PKC inhibiting activity in terms of Ki value
Protocol: Each of compounds 1 to 10 was used as an inhibitor for PKC. As a comparative compound, 1- 2-(6-benzothiazolesulfonylamino)ethyl!-4- 3-(phenoxy)propyl!piperazine dihydrochloride disclosed in International Patent Application Publication No. W092/14712 was used. Measurement of a PKC inhibiting activity of each of compounds 1 to 10 was conducted utilizing a kit for measuring PKC inhibiting activity (manufactured and sold by Medical and Biological Laboratories, Japan). PKC was isolated from a rat brain and purified by the method according to Inagaki et al. (Journal of Biochemistry, vol. 260, p.2922-2925, 1985). On the surface of each well of the 96-well plate of the measuring kit, a peptide which is a substrate for PKC was immobilized. To each of the wells was added a solution containing 25 mM Tris buffer (pH 7.5), 3 mM magnesium chloride, 1 mM calcium chloride, 0.1% 2-mercaptoethanol, 1 mg/ml bovine serum albumin, 50 μg/ml phosphatidylserine, 10 μg/ml PKC and 1 μM of ATP, thereby initiating the reaction. Substantially the same reaction as mentioned above was repeated three more times, except that the ATP concentration was changed to 3, 5 and 10 μM. 3 Minutes after the initiation of each of the reactions, 100 μl of an aqueous 20% phosphoric acid solution was added to each well of the individual plates to terminate the reaction. Each well was washed with TrPBS three times. 100 μl of the primary antibody included in the kit, which had been diluted 10-fold with TwPBS, was added to each of the washed wells, and allowed to stand at room temperature for 1 hour. Each well was washed with TrPBS three times. Then, as a secondary antibody, 100 μl of peroxydase-labeled anti-mouse IgG antibody (manufactured and sold by Bio-Rad laboratories, U.S.A.) which had been diluted 1000-fold with TwPBS was added to each well, and allowed to stand at room temperature for 1 hour. Each well was washed with TrPBS three times. To each well was added 100 μl of a coloring agent containing 2 mg/ml orthophenylenediamine and an aqueous 0.04% hydrogen peroxide solution. When the coloring proceeded satisfactorily, 30 μl of 4.5M sulfuric acid was added to each well to terminate the reaction. The absorbance of the reaction mixture in each well was determined using a microplate reader (manufactured and sold by Bio-Rad laboratories, u.s.a.). In order to measure the PKC inhibiting activity of each of compounds 1 to 10 and the comparative compound, each of the compounds having an appropriate concentration was individually added to the above-mentioned respective solutions having ATP concentrations of 1, 3, 5 and 10 μM and, then, the PKC activity was individually measured in terms of the absorbance in substantially the same manner as mentioned above. The PKC inhibiting activity in terms of inhibition constant (Ki) was individually obtained by double reciprocal plotting of the respective PKC activities obtained in the presence of each of compounds 1 to 10 and the comparative compound, and the respective PKC activities obtained in the absence of compounds 1 to 10 and the comparative compound.

[1] = biological target: T1, Myosin light chain kinase (MLCK) (Gallus gallus, UniProt P11799); test: Measurement of the activity to inhibit Myosin light chain kinase (MLCK); format: biochemical; settings: for pKi: ATP 20, 30, 50 and 100 μM, double reciprocal plotting, substrate MLC from chicken gizzard, read-out: MLCK inhibiting activity in terms of Ki value
T1 construct: MLCK was isolated and purified by the method according to Walsh et al; from tissue
T1 sequence (P11799 935-1906): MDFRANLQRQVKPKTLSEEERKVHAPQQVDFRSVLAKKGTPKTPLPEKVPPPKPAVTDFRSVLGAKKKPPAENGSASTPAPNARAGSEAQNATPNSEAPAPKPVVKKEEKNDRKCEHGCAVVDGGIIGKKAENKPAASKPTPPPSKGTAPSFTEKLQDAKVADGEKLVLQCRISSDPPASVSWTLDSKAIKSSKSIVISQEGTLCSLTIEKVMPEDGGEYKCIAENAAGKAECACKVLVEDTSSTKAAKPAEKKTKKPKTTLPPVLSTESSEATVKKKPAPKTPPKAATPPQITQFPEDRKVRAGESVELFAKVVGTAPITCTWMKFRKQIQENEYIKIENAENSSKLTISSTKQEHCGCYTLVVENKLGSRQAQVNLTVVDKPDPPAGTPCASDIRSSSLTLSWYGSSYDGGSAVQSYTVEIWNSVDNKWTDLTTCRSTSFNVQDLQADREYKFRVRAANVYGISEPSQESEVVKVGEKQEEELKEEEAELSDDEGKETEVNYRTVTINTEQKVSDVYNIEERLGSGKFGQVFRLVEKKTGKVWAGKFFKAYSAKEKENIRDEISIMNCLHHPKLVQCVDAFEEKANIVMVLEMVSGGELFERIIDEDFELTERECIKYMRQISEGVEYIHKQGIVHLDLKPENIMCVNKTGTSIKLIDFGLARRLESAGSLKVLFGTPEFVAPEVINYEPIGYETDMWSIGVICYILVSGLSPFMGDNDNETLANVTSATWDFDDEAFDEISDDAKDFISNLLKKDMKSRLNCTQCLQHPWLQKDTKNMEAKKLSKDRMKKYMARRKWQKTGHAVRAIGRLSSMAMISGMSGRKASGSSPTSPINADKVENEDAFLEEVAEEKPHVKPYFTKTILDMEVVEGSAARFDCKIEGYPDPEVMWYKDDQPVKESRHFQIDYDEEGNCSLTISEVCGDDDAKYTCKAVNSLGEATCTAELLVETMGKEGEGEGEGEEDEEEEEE
Protocol: Each of compounds 1 to 10 was used as an inhibitor for MLCK. As a comparative compound, 1- 2-(6-benzothiazolesulfonylamino)ethyl!-4- 3-(phenoxy)propyl!piperazine dihydrochloride disclosed in International Patent Application Publication No. WO92/14712 was used. Measurement of an MLCK inhibiting activity of each of compounds 1 to 10 was conducted utilizing the reaction system of MLCK and an antibody specific for phosphorylated myosine light chain (MLCP). MLC was isolated from a chicken gizzard and purified by the method according to Perry et al. (Journal of Biochemistry, vol. 211, p.267-272, 1983), to thereby obtain 20 kDa of purified MLC. On the other hand, MLCK was isolated and purified by the method according to Walsh et al. (Methods in Enzymology, vol. 99, p.279-288, 1983). Calmodulin was isolated from a pig brain and purified by the method according to Yazawa (Journal of Biochemistry, vol. 87, p.1313-1320, 1980). Further, anti-MLCP antibody was prepared by using, as an antigen, a synthetic peptide which has an amino acid sequence of an MLCP amino acid fragment of 12 amino acid residues containing a serine residue (phosphorylation site of MLCP). […] The synthetic peptide was subjected to phosphorylation by MLCK in the presence of ATP, followed by purification by high performance liquid chromatography. The purified peptide was conjugated with key hole limpet hemocyanin (KLH). The conjugation efficiency thereof was 110-148 nmol peptide/mg KLH. 0.2 mg of the KLH-conjugated peptide was mixed with an adjuvant and injected to a rabbit. The injection was conducted four more times, to thereby immunize the […]. An anti-MLCP antibody was obtained from the […], and the antibody titer thereof was examined. With respect to the anti-MLCP antibody having a satisfactorily high antibody titer, an IgG fraction (anti-MLCP IgG) was obtained and purified. Measurement of the MLCK activity was conducted as follows. MLC was diluted with a phosphate buffer (PBS) to obtain a solution having a MLC concentration of 5 μg/ml. 100 μl of the solution was added to each well of 96-well immunoplate, and was allowed to stand overnight at 4° C., to thereby immobilize the MLC on the surface of each well. Each plate was washed with PBS to thereby remove the MLC which had not been immobilized. To each of the MLC-immobilized wells was added a solution containing 25 mM Tris buffer (pH 7.5), 3 mM magnesium chloride, 1 mM calcium chloride, 0.1% of 2-mercaptoethanol, 1 mg/ml bovine serum albumin, 20 μg/ml calmoduline, 0.1 μg/ml MLCK, and 20 μM of ATP, thereby initiating the reaction. Substantially the same reaction as mentioned above was repeated three more times, except that the ATP concentration was changed to 30, 50 and 100 μM. 3 Minutes after the initiation of each of the reactions, 100 μl of an aqueous 20% phosphoric acid solution was added to each well of the individual plates to terminate the reaction. Each well was washed three times with PBS containing 0.2% of Triton X-100 (TrPBS). As a primary antibody, 100 μl of anti-MLCP antibody which had been diluted 500-fold with PBS containing 0.05% Tween 20 (TwPBS) was added to each of the washed wells, and allowed to stand at room temperature for 1 hour. Each well was washed with TrPBS three times. Then, as a secondary antibody, 100 μl of peroxydase-labeled anti-rabit IgG antibody (manufactured and sold by Cappel Co., Ltd., Germany) which had been diluted 1000-fold with TwPBS was added to each well, and allowed to stand at room temperature for 1 hour. Each well was washed with TrPBS three times. To each well was added 100 μ l of a coloring agent containing 2 mg/ml orthophenylenediamine and an aqueous 0.04% hydrogen peroxide solution. When the coloring proceeded satisfactorily, 30 μl of 4.5M sulfuric acid was added to each well to terminate the reaction. The absorbance of the reaction mixture in each well was determined using a microplate reader (manufactured and sold by Bio-Rad laboratories, U.S.A.). […]

[2] = test system: tracheal specimens excised from guinea pigs (bronchial smooth muscle); test: Inhibitory effect on KCl-induced contraction of tracheal specimens excised from guinea pigs; parameters: species or system guinea pig; settings: for Emax: Cavia porcellus, 20 mM KCl-induced contraction, maximum relaxation with 100 μM papaverine = 100%, 37 °C, 3 specimens, cumulative addition, read-out: Bronchial smooth muscle-relaxation ratio
Source text: According to a method in which tracheal specimens excised from guinea pigs were used (Takagi and Ozawa, "Yakubutsugaku Jikken (Experiments in Pharmacology)", p.100-102, 1960, published by Nanzando, Japan; and Fujiwara and Shibata, "Yakurigaku Kiso Jikenho (Methods of Fundamental Experiments in Pharmacology)" p.131-134, 1982, published by Kyourin, Japan), the relaxing effect of benzothiazolesulfonamide derivatives of the present invention (compounds 1 to 10) on bronchial smooth muscle was evaluated. From male guinea pigs weighing 350 to 500 g (Hartley strain, Kuroda Junkei Dobutsu), tracheas were excised and each of the excised tracheal specimens was hung in a 20 ml Magnus tube filled with Krebs-Henseleit solution containing 3 μM indomethacin under isometric conditions (initial load: 1.5 g). The solution temperature was kept at 37 ° C. in an atmosphere containing 95% O2 and 5% CO2. […] On the other hand, each of the compounds of the present invention was dissolved in distilled water or physiological saline and, after the KCl-induced contraction became stable, the compound solution was cumulatively added into the Magnus tube. The relaxing effect of each of the compounds of the present invention on contracted tracheal specimens was evaluated and a dose-response curve was obtained. After the evaluation of the relaxing effect, 100 μM of papaverine was individually added into the Magnus tubes, to thereby obtain a maximum relaxation value. Taking the obtained maximum relaxation value as 100%, the relaxation ratio was calculated with respect to each of thee compounds of the present invention. The number of specimens tested for each compound was 3. As a comparative compound, 1- 2-(6-benzothiazolesulfonylamino)ethyl!-4- 3-(phenoxy)propyl!piperazine […] disclosed in International Patent Application Publication No. WO92/14712 was used. (2) Results of the calculations

bronchial smooth muscle = settings: disclosed in WO92/14712; cited from earlier work

SMILES	pKi (protein kinase C (PKC))	pKi [1]	Emax [2]	activity to inhibit protein kinase C (in words) (protein kinase C (PKC); conclusion from Table 1)	activity to inhibit myosin light chain kinase (in words) ([1]; conclusion from Table 1)	ability to relax a bronchial smooth muscle of a tracheal specimen (in words) ([2]; KCl-induced contraction, conclusion from Table 2)	ability to relax a bronchial smooth muscle by its antihistaminic activity (bronchial smooth muscle)
O=S(=O)(c1cccc2ncsc12)N1CCNCC1 [Compound 2, 1-(7-benzothiazolesulfonyl)piperazine hydrochloride]	5.30	4.30	24%	–	–	–	–
O=S(=O)(c1ccc2ncsc2c1)N1CCNCC1 [Compound 6, 1-(6-benzothiazolesulfonyl)piperazine hydrochloride]	4.82	4.60	27.2%	–	–	–	–
O=S(=O)(NCCNCc1cccc(Cl)c1)c1cccc2ncsc12 [Compound 8, N-2-(3-chlorobenzylamino)ethyl!-7-benzothiazolesulfonamide hydrochloride]	5.30	4.26	85.7%	–	–	–	–
CC1CNCCN1S(=O)(=O)c1cccc2ncsc12 (stereo not shown) [Compound 3, 1-(7-benzothiazolesulfonyl)-2-methylpiperazine hydrochloride]	4.82	4.05	21.1%	–	–	–	–
CC(NCCNS(=O)(=O)c1cccc2ncsc12)c1cccc(Cl)c1 (stereo not shown) [Compound 9, N-{2-1-(3-chlorophenyl)ethyl!aminoethyl}-7-benzothiazolesulfonamide hydrochloride]	4.60	4.05	74.6%	–	–	–	–
O=S(=O)(NCCNCc1ccc2c(c1)OCO2)c1cccc2ncsc12 [Compound 7, N-2-(3,4-methylenedioxybenzylamino)ethyl!-7-benzothiazolesulfonamide hydrochloride]	5.22	4.30	96.8%	–	–	–	–
O=S(=O)(NCCNCc1cccc(F)c1)c1cccc2ncsc12 [Compound 10, N-2-(3-fluorobenzylamino)ethyl!-7-benzothiazolesulfonamide hydrochloride]	5.15	4.26	78%	–	–	–	–
O=S(=O)(NCCN1CCN(CCCOc2ccccc2)CC1)c1ccc2ncsc2c1 [Comparative compound, 1-2-(6-benzothiazolesulfonylamino)ethyl!-4-3-(phenoxy)propyl!piperazine dihydrochloride, reference compound]	< 3.70	< 3.70	6.8%	no activity to inhibit the protein kinases	no activity to inhibit the protein kinases	no ability to relax such a bronchial smooth muscle	–
O=S(=O)(NCCN1CCN(CCCOc2ccccc2)CC1)c1ccc2ncsc2c1 [1-2-(6-benzothiazolesulfonylamino)ethyl!-4-3-(phenoxy)propyl!piperazine]	–	–	–	–	–	–	has the ability to relax a bronchial smooth muscle by its antihistaminic activity
CNCCNS(=O)(=O)c1cccc2ncsc12 [Compound 5, 1-(7-benzothiazolesulfonyl)-4-methylethylenediamine hydrochloride]	4.46	3.92	22%	–	–	–	–
NCCNS(=O)(=O)c1cccc2ncsc12 [Compound 4, 1-(7-benzothiazolesulfonyl)ethylenediamine hydrochloride]	5.30	4.12	33%	–	–	–	–
O=S(=O)(c1cccc2ncsc12)N1CCCNCC1 [Compound 1, 1-(7-benzothiazolesulfonyl)homopiperazine hydrochloride]	5.15	4.10	30.5%	–	–	–	–
